Measurements reported in patent US6693116B2, “Adenosine receptor ligands” (Hoffmann-La Roche Inc., priority 2001, dated 2004).

Each molecule was assayed against T1, human adenosine A2A receptor (Homo sapiens, UniProt P29274) (assay: [3H]-SCH-58261 binding assay, human adenosine A2A receptor). Conditions: membranes of CHO cells recombinantly expressing the human A2A receptor, Ki from IC50 by Cheng-Prussoff equation, read-out: HA2A KI.
T1 construct: expressed in transfected cells; host or cells: CHO cells, Semliki Forest virus expression system; membrane preparation
Protocol: Human Adenosine A2A Receptor
The human adenosine A2A receptor was recombinantly expressed in Chinese hamster ovary (CHO) cells using the semliki forest virus expression system. Cells were harvested, washed twice by centrifugation, homogenized and again washed by centrifugation. The final washed membrane pellet was suspended in a Tris (50 mM) buffer containing 120 mM NaCl, 5 mM KCl, 2 mM CaCl2 and 10 mM MgCl2 (pH 7.4) (buffer A). The [^3H]-SCH-58261 (Dionisotti et al., 1997, Br. J. Pharmacol. 121, 353) binding assay was carried out in 96-well plates in the presence of 2.5 μg of membrane protein, 0.5 mg of Ysi-poly-l-lysine SPA beads and 0.1 U adenosine deaminase in a final volume of 200 μl of buffer A. Non-specific binding was defined using xanthine amine congener (XAC; 2 μM). Compounds were tested at 10 concentrations from 10 μM to 0.3 nM. All assays were conducted in duplicate and repeated at least twice. Assay plates were incubated for 1 hour at room temperature before centrifugation and then bound ligand was determined using a Packard Topcount scintillation counter. IC50 values were calculated using a non-linear curve fitting program and Ki values calculated using the Cheng-Prussoff equation.
In accordance with the invention, the compounds of formula I have a high affinity toward the A2A receptor. The table below (after Example 10) describes specific values of prepared compounds.

T1 sequence (P29274 whole entry): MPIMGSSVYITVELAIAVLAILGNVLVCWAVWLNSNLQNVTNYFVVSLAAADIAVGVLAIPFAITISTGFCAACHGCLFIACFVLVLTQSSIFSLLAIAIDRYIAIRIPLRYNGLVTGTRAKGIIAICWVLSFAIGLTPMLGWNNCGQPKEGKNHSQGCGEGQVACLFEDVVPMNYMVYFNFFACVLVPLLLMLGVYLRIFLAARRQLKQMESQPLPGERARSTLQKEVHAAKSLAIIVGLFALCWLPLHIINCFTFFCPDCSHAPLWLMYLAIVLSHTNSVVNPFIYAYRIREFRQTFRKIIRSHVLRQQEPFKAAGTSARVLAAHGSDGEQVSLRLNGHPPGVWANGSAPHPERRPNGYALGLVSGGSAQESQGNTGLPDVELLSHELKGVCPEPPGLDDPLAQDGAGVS

Structure (SMILES) | Ki
COc1cccc(-c2ccc(OC)n3nc(NC(=O)c4ccc(Br)cc4)nc23)c1 [Example 13, 4-Bromo-N-[5-methoxy-8-(3-methoxy-phenyl)-[1,2,4]triazolo[1,5-a]pyridin-2-yl]-benzamide] | 480 nM
COc1ccc(Br)c(C(=O)Nc2nc3c(-c4cccc(F)c4)ccc(OC)n3n2)c1 [Example 14, 2-Bromo-N-[8-(3-fluoro-phenyl)-5-methoxy-[1,2,4]triazolo[1,5-a]pyridin-2-yl]-5-methoxy-benzamide] | 908 nM
COc1ccc(-c2cccc(F)c2)c2nc(NC(=O)c3ccc(Br)o3)nn12 [Example 15, 5-Bromo-furan-2-carboxylic acid [8-(3-fluoro-phenyl)-5-methoxy-[1,2,4]triazolo[1,5-a]pyridin-2-yl]-amide] | 572 nM
COc1cccc(-c2ccc(OC)n3nc(NC(=O)c4ccc(Br)o4)nc23)c1 [Example 16, 5-Bromo-furan-2-carboxylic acid [5-methoxy-8-(3-methoxy-phenyl)-[1,2,4]triazolo[1,5-a]pyridin-2-yl]-amide] | 560 nM
COc1ccc(-c2ccccc2)c2nc(NC(=O)c3cccc(C)c3)nn12 [Example 17, N-(5-Methoxy-8-phenyl-[1,2,4]triazolo[1,5-a]pyridin-2-yl)-3-methyl-benzamide] | 984 nM
COc1cccc(-c2ccc(OC)n3nc(NC(=O)c4cccs4)nc23)c1 [Example 21, Thiophene-2-carboxylic acid[5-methoxy-8-(3-methoxy-phenyl)-[1,2,4]thiazolo[1,5-a]pyridin-2-yl]-amide] | 516 nM

Further lines, results first:

Ki | Structure (SMILES)
884 nM | COc1ccc(-c2ccccc2)c2nc(NC(=O)c3ccc(C(F)(F)F)cc3)nn12 [Example 11, N-(5-Methoxy-8-phenyl-[1,2,4]triazolo[1,5-a]pyridin-2-yl)-4-trifluoromethyl-benzamide]
776 nM | COc1ccc(-c2ccc(F)cc2)c2nc(NC(=O)c3ccc(Br)cc3)nn12 [Example 12, 4-Bromo-N-[8-(4-fluoro-phenyl)-5-methoxy-[1,2,4]triazolo[1,5-a]pyridin-2-yl]-benzamide]
664 nM | COc1ccc(-c2ccc(F)cc2)c2nc(NC(=O)c3ccc(F)cc3)nn12 [Example 18, 4-Fluoro-N-[8-(4-fluoro-phenyl)-5-methoxy-[1,2,4]triazolo[1,5-a]pyridin-2-yl]-benzamide]
748 nM | COc1cccc(-c2ccc(OC)n3nc(NC(=O)c4ccc(F)cc4)nc23)c1 [Example 19, 4-Fluoro-N-[5-methoxy-8-(3-methoxy-phenyl)-[1,2,4]triazolo[1,5-a]pyridin-2-yl]-benzamide]
784 nM | COc1ccc(-c2ccc(F)cc2)c2nc(NC(=O)c3ccccc3F)nn12 [Example 20, 2-Fluoro-N-[8-(4-fluoro-phenyl)-5-methoxy-[1,2,4]triazolo[1,5-a]pyridin-2-yl]-benzamide]
